SMILES strings stand for the structures.

What all share (assay type): functional, Mus musculus
Experiment [1] deals with EMT6. Kind of experiment: Compound was evaluated for its effect on survival of aerobic EMT6 tumor cells when exposed to concentration at 10E-4 M.
Experiment [2] relates to EMT6. Kind of experiment: Compound was evaluated for its effect on survival of aerobic EMT6 tumor cells when exposed to concentration at 10E-6 M.
For experiment [3], the system named is EMT6. Description: Compound was evaluated for its effect on survival of aerobic EMT6 tumor cells when exposed to concentration at 10e-8 M.
Experiment [4] concerns EMT6. Description: Compound was evaluated for its effect on survival of hypoxic EMT6 tumor cells when exposed to concentration at 10E-4 M.
The test system of experiment [5] is EMT6. Description: Compound was evaluated for its effect on survival of hypoxic EMT6 tumor cells when exposed to concentration at 10E-6 M.
The subject of experiment [6] is EMT6. Description: Compound was evaluated for its effect on survival of hypoxic EMT6 tumor cells when exposed to concentration at 10E-8 M.
The test system of experiment [7] is EMT6. Description: Compound was evaluated for its effect on survival of aerobic EMT6 tumor cells when exposed to concentration at 10E-5 M.
Experiment [8] relates to EMT6. Kind of experiment: Compound was evaluated for its effect on survival of aerobic EMT6 tumor cells when exposed to concentration at 10e-6 M.
Experiment [9] concerns EMT6. Description: Compound was evaluated for its effect on survival of hypoxic EMT6 tumor cells when exposed to concentration at 10e-5 M.
The test system of experiment [10] is EMT6. Kind of experiment: Compound was evaluated for its effect on survival of aerobic EMT6 tumor cells when exposed to concentration at 10e-7 M.
In experiment [11] the test system is EMT6. Kind of experiment: Compound was evaluated for its effect on survival of hypoxic EMT6 tumor cells when exposed to concentration at 10e-7 M.

Consider `Nc1nc(SCc2ccc([N+](=O)[O-])cc2)c2nc[nH]c2n1`, for which the Surviving factor is 78% with EMT6 [1]; 106% in the experiment with EMT6 [2]; 79% in the experiment with EMT6 [3]; 156% in the experiment on EMT6 [4]; 137% with EMT6 [5]; 102% with EMT6 [6].

For the molecule `Nc1nc(SCc2cccc([N+](=O)[O-])c2)c2[nH]cnc2n1`, the Surviving factor in the experiment with EMT6 [1] is given as 91%; in the experiment on EMT6 [7] it was 103%; in the experiment on EMT6 [8] it was 95%; in the experiment on EMT6 [4], 88%; in the experiment on EMT6 [9], 103%; in the experiment on EMT6 [5] it was 103%.

For `Nc1nc(SCc2ccccc2[N+](=O)[O-])c2[nH]cnc2n1`, the Surviving factor in the experiment on EMT6 [1] is 89%; in the experiment on EMT6 [2] it was 95%; in the experiment with EMT6 [3], 91%; in the experiment on EMT6 [4], 85%; in the experiment on EMT6 [5] it was 82%; in the experiment on EMT6 [6], 94%.

Turning to `Nc1nc2[nH]cnc2c(=S)[nH]1` [THIOGUANINE], the Surviving factor with EMT6 [1] is given as 67%; with EMT6 [7] it was 78%; with EMT6 [8], 70%; with EMT6 [10], 95%; in the experiment on EMT6 [4], 106%; in the experiment with EMT6 [9], 107%. Further, the figures for the Surviving factor in the experiment on EMT6 [5] and in the experiment with EMT6 [11] were 90% and 89%, respectively.

The values above are taken from ChEMBL document CHEMBL1123249, “Nitrobenzyl derivatives as bioreductive alkylating agents: evidence for the reductive formation of a reactive intermediate” (1986).
